For the assay, the system named is Influenza A virus. In words: microbe, parasite or virus in culture. The following applies: A/Puerto Rico/8/34, MDCK, 48 h.

A word on the IC50: it is the concentration that inhibits the measured activity by half. Low values mean greater potency in that assay, high ones weaker potency in that assay. With `Cc1[nH]c(=O)[nH]c(=O)c1CCCc1cn(C2OC(CO)C(O)C2O)nn1` (stereo unspecified), the IC50 came out at 68 µM. This counts as double-digit micromolar.

(Values after ChEMBL document CHEMBL5505957 (Eur J Med Chem, 2024).)
